Assays:
colonic Rorγ^+ Tregs = experiment: Mono-colonization of germ free mice with single bacterial species; colonic Rorγ+ Tregs by flow cytometry; format: in vivo, Germfree C57BL/6J mice
Method: A panel of bacterial species selected from the microbiota of the human gastrointestinal tract were tested for their ability to induce the production of Rorγ^+ Tregs. Bacteria were obtained from the ATCC, BEI Resources, or the German Collection of Microorganisms and Cell Cultures (DSMZ), or from the laboratory collections at Harvard Medical School. Anaerobic bacteria were cultured under strictly anaerobic conditions (80% N2, 10% H2, 10% CO2) at 37° C. in an anaerobic chamber.
Germfree C57BL/6J were maintained in sterile isolators, and were inoculated by gavage with single bacterial species at 4 weeks of age, then housed in gnobiotic isolators. After 2 weeks, mice were sacrificed, colon tissue was harvested, cleaned of luminal content and treated with RPMI containing 1 mM DTT, 20 mM EDTA and 2% FBS at 37° C. for 15 min to remove epithelial cells. The colon tissue was then minced and dissociated in collagenase solution (1.5 mg/ml collagenase II (Gibco), 0.5 mg/ml dispase and 1% FBS in RPMI) with constantly stirring at 37° C. for 45 min. […] Cells were analyzed with a BD LSRII flow cytometer, and data analysis was performed with FlowJo (Tree Star) software. The proportion of Rorγ^+ Tregs was determined within the total population of CD4^+FoxP3^+ Treg cells, and the significance of the difference relative to unmanipulated germfree mice determined using a two-tailed Student's T-test. […]

Rorγ^+ Tregs = experiment: IL-33 administration to mice; response of Rorγ+ Tregs; format: in vivo; details: recombinant mouse IL-33 i.p.
Method: Mice were bred in a pathogen-free facility or in germ-free isolators. For IL-33 administration, recombinant mouse IL-33 (BioLegend) was administered i.p. at 2 μg/injection every other day for 7 days.

Molecule | induction of production of Rorγ^+Helios^− LP Tregs (colonic Rorγ^+ Tregs; germ free mice colonized with single bacterial species for 2 weeks, FIGS. 4D, 4E and 5) | ability to promote colonic Treg production (proportions) (colonic Rorγ^+ Tregs; within the Bacteroides genus, mono-colonized germ free mice) | response of Rorγ^+ Tregs to IL-33 (Rorγ^+ Tregs)
Bacteroides fragilis | capable of inducing production | low | –
IL-33: recombinant mouse IL-33 (BioLegend); alarmin (protein, UniProt Q8BVZ5 1-266, looked up) Interleukin-33: MRPRMKYSNSKISPAKFSSTAGEALVPPCKIRRSQQKTKEFCHVYCMRLRSGLTIRKETSYFRKEPTKRYSLKSGTKHEENFSAYPRDSRKRSLLGSIQAFAASVDTLSIQGTSLLTQSPASLSTYNDQSVSFVLENGCYVINVDDSGKDQEQDQVLLRYYESPCPASQSGDGVDGKKLMVNMSPIKDTDIWLHANDKDYSVELQRGDVSPPEQAFFVLHKKSSDFVSFECKNLPGTYIGVKDNQLALVEEKDESCNNIMFKLSKI | – | – | do not respond
